The experiment addresses T1, human GPR40 (Homo sapiens, UniProt O14842).
T1 construct: expressed in transfected cells
The experiment can be described thus: Inositol Phosphate Turnover (IP1) Assay. The class given is cell-based. The following applies: HEK cells stably expressing human GPR40; CisBio IP-One kit; 60 minutes at 37 degrees; read-out: Human IP1 EC50. In a few lines:
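HEK cells stably expressing GPR40, plated 16 h, then exposed to compound in stimulation buffer for 60 min at 37 °C. IP1 accumulation read by HTRF IP-One detection after 60 min at RT.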

The structures appear in SMILES notation.

T1 sequence (O14842 whole entry): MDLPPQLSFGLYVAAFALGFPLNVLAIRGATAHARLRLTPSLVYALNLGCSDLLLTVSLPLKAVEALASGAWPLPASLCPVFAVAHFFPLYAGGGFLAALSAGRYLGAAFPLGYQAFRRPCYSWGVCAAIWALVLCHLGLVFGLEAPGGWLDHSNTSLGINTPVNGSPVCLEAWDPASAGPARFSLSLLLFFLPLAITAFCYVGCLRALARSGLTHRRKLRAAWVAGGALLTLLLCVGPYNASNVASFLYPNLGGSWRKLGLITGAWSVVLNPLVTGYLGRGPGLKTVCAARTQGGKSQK

On to `CC(c1cc(C(F)(F)F)ccc1C1CC1)N1CCC2(CCc3ccc([C@H](C4CC4)[C@H](C)C(=O)O)cc3O2)CC1` (single isomer, unassigned) [Example 13, sodium (2S,3R)-3-cyclo-propyl-3-(1′-((R or S)-1-(2-cyclopropyl-5-(trifluoromethyl)phenyl)ethyl)spiro[chroman-2,4′-piperidin]-7-yl)-2-methylpropanoale], for which the EC50 (commonly the midpoint of the concentration-response curve) was 3.6 nM.

Consider `C[C@H](C(=O)O)[C@H](c1ccc2c(c1)OC1(CC2)CC2(CN([C@@H](C)c3cc(C(F)(F)F)ccc3C(F)(F)F)C2)C1)C1CC1` [Example 127, (2S,3R)-3-cyclopropyl-3-(2,2-(S)-2-(1-(2,5-bis(trifluoromethyl)phen-yl)ethyl)-2-azaspiro[3.3]-heptane-chroman-7-yl)-2-methylpropanoic acid], for which the concentration for a half-maximal effect (EC50) was 0.46 nM.

As to `CC(c1cc(-c2ccoc2)ccc1OC(F)(F)F)N1CCC2(CCc3ccc([C@H](C4CC4)[C@H](C)C(=O)O)cc3O2)CC1` (single isomer, unassigned) [Example 118, (2S,3R)-3-cyclopropyl-3-(1′-((S or R)-1-(5-(furan-3-yl)-2-(trifluoromethoxy)phenyl)ethyl)spiro[chroman-2,4′-piperidin]-7-yl)-2-methylpropanoic acid], the EC50 was found to be 2.29 nM.

As to `C[C@H](C(=O)O)[C@H](c1ccc2c(c1)OC1(CC2)CC(Nc2ncccc2C(F)(F)F)C1)C1CC1` (single isomer, unassigned) [Example 88], the EC50 was found to be 57 nM.

As for `C[C@H](C(=O)O)[C@H](c1ccc2c(c1)OC1(CCCN(Cc3cc(C(F)(F)F)ccc3C(F)(F)F)CC1)CC2)C1CC1` (single isomer, unassigned) [Example 47, (2S,3R)-3-((R or S)-1-(2,5-bis(trifluoromethyl)benzyl)spiro[azepane-4,2′-chroman]-7′-yl)-3-cyclopropyl-2-methylpropanoic Acid], the EC50 came to 2.64 nM.

Regarding `C[C@H](C(=O)O)[C@H](c1ccc2c(c1)OC1(CC2)CCC(Nc2ncccc2C(F)(F)F)CC1)C1CC1` (single isomer, unassigned) [Example 65], the 50% effective concentration (EC50) amounted to 28 nM.

On to `C[C@H](C(=O)O)[C@H](c1ccc2c(c1)OC1(CC2)CCN(c2cncc(C(F)(F)F)c2)CC1)C1CC1` [Example 39, (2S,3R)-3-cyclopropyl-2-methyl-3-(1′-(5-(trifluoromethyl)pyridin-3-yl)Spiro [chroman-2,4′-piperidin]-7-yl)propanoic Acid], for which the EC50 stood at 566 nM.

With `C[C@H](C(=O)O)[C@H](c1ccc2c(c1)OC1(CC2)CC(N(C)Cc2cc(C(F)(F)F)ccc2C(F)(F)F)C1)C1CC1` (single isomer, unassigned) [Example 98], the EC50 is 1.62 nM.

Regarding `Cc1ccc(OC(F)(F)F)c(CN2CCC3(CCc4ccc([C@H](C5CC5)[C@H](C)C(=O)O)cc4O3)CC2)c1` [Example 77, (2S,3R)-3-cyclopropyl-2-methyl-3-(1′-(5-methyl-2-(trifluoromethoxy)benzyl)spiro[chroman-2,4′-piperidin]-7-yl)propanoic acid], the EC50 was determined as 23.4 nM.

Regarding `C[C@H](C(=O)O)[C@H](c1ccc2c(c1F)OC1(CC2)CCN(Cc2cc(Cl)ccc2OC(F)F)CC1)C1CC1` [Example 20, (2S,3R)-3-(1′-(5-chloro-2-(difluoromethoxy)benzyl)-8-fluorospiro[chroman-2,4′-piperidin]-7-yl)-3-cyclopropyl-2-methylpropanoic Acid], the EC50 amounted to 13.5 nM.

`C[C@H](C(=O)O)[C@H](c1ccc2c(c1F)OC1(CC2)CCN([C@H](C)c2cc(C(F)(F)F)ccc2Cl)CC1)C1CC1` (mixture of isomers) [Example 12, (2S,3R)-3-(1′-((RS)-1-(2-chloro-5-(trifluoro-methyl)phenyl)ethyl)-8-fluorospiro[chroman-2,4′-piperidin]-7-yl)-3-cyclopropyl-2-methylpropanoic acid]: the EC50 was 995 nM.

Regarding `COc1ccc(C(F)(F)F)c(C(C)N2CCC3(CCc4ccc([C@H](C5CC5)[C@H](C)C(=O)O)cc4O3)CC2)n1` (single isomer, unassigned) [Example 104, sodium (2S,3R)-3-cyclopropyl-3-(1′-((R or S)-1-(6-methoxy-3-(trifluoromethyl)pyridin-2-yl)ethyl)spiro[chroman-2,4′-piperidin]-7-yl)-2-methylpropanoate], the concentration for a half-maximal effect (EC50) is 59.8 nM.

For the molecule `C[C@H](C(=O)O)[C@H](c1ccc2c(c1)OC1(CCCN([C@H](C)c3cc(C(F)(F)F)ccc3C(F)(F)F)C1)CC2)C1CC1` (single isomer, unassigned) [Example 74, (2S,3R)-3-((S or R)-1′-((R)-1-(2,5-bis (trifluoromethyl)phenyl)-ethyl)spiro[chroman-2,3′-piperidin]-7-yl)-3-cyclopropyl-2-methylpropanoic acid], the concentration for a half-maximal effect (EC50) amounted to 18.3 nM.

Consider `CC(c1cc(C(F)(F)F)ccc1F)N1CCC2(CCc3ccc([C@H](C4CC4)[C@H](C)C(=O)O)cc3O2)CC1` (mixture of isomers) [Example 28, (2S,3R)-3-cyclopropyl-3-(1′-((RS)-1-(2-fluoro-5-(trifluoromethyl)phenyl)ethyl)spiro[chroman-2,4′-piperidin]-7-yl)-2-methylpropanoic acid], for which the EC50 is 11 nM.

In the case of `C[C@H](C(=O)O)[C@H](c1ccc2c(c1)OC1(CC2)CCN(c2ccc3c(C(F)(F)F)nn(C)c3c2)CC1)C1CC1` [Example 37, (2S,3R)-3-cyclopropyl-2-methyl-3-(1′-(1-methyl-3-(trifluoromethyl)-1H-indazol-6-yl)spiro[chroman-2,4′-piperidin]-7-yl)-propanoic acid], the EC50 turned out to be 683 nM.

`CC(c1cc(Cl)ccc1OC(F)(F)F)N1CCC2(CCc3ccc([C@H](C4CC4)[C@H](C)C(=O)O)c(F)c3O2)CC1` (stereo partly drawn) [Example 21, (2S,3R)-3-(1′-(1-(5-chloro-2-(trifluoromethoxy)phenyl)ethyl)-8-fluorospiro[chroman-2,4′-piperidin]-7-yl)-3-cyclopropyl-2-methylpropanoic Acid]: the EC50 was 3.66 nM.

Source of the values: US10968232B2 (Merck Sharp & Dohme Corp., priority 2016, dated 2021).
